What was measured:
[1] = tested on: SMO-LBP and SMO-CA variants; experiment: HH pathway activity; conditions: […] nM vismodegib (4-fold greater than IC50), SHH-N CM
SMO F460L = SMO F460L (Homo sapiens, UniProt Q99835, F460L); experiment: Hedgehog signaling assay; assay type: cell-based; conditions: SHH-N CM, 100 nM vismodegib
SMO Q635E = SMO Q635E (Homo sapiens, UniProt Q99835, Q635E); conditions: SHH-N CM, 10, 20 or 80 nM vismodegib
SMO L412F = SMO L412F (Homo sapiens, UniProt Q99835, L412F); experiment: Hedgehog signaling assay; assay type: cell-based; conditions: SHH-N CM, 100 nM vismodegib
SMO H231R = SMO H231R (Homo sapiens, UniProt Q99835, H231R); experiment: Hedgehog signaling assay; assay type: cell-based; conditions: 100 nM vismodegib and SHH-N ligand
SMO W281C = SMO W281C (Homo sapiens, UniProt Q99835, W281C); experiment: Hedgehog signaling assay; assay type: cell-based; conditions: 100 nM vismodegib and SHH-N ligand
[2] = tested on: syndromic BCCs in patients with Basal Cell Nevus Syndrome; conditions: Gorlin, inherited PTCH1 loss; ref Tang et al., 2012; cited from earlier work
SMO V386A = SMO V386A (Homo sapiens, UniProt Q99835, V386A); experiment: Hedgehog signaling assay; assay type: cell-based; conditions: 100 nM vismodegib and SHH-N ligand
[3] = tested on: advanced and metastatic BCCs; conditions: 2012, cited from earlier work
SMO V321M = SMO V321M (Homo sapiens, UniProt Q99835, V321M); experiment: Hedgehog signaling assay; assay type: cell-based; conditions: SHH-N CM, 100 nM vismodegib
SMO Q477E = SMO Q477E (Homo sapiens, UniProt Q99835, Q477E); experiment: Hedgehog signaling assay; assay type: cell-based; conditions: 100 nM vismodegib and SHH-N ligand
SMO D473G = SMO D473G (Homo sapiens, UniProt Q99835, D473G); experiment: Hedgehog signaling assay; assay type: cell-based; conditions: 100 nM vismodegib and SHH-N ligand
Chain of SMO D473G (Q99835 28-787 D473G): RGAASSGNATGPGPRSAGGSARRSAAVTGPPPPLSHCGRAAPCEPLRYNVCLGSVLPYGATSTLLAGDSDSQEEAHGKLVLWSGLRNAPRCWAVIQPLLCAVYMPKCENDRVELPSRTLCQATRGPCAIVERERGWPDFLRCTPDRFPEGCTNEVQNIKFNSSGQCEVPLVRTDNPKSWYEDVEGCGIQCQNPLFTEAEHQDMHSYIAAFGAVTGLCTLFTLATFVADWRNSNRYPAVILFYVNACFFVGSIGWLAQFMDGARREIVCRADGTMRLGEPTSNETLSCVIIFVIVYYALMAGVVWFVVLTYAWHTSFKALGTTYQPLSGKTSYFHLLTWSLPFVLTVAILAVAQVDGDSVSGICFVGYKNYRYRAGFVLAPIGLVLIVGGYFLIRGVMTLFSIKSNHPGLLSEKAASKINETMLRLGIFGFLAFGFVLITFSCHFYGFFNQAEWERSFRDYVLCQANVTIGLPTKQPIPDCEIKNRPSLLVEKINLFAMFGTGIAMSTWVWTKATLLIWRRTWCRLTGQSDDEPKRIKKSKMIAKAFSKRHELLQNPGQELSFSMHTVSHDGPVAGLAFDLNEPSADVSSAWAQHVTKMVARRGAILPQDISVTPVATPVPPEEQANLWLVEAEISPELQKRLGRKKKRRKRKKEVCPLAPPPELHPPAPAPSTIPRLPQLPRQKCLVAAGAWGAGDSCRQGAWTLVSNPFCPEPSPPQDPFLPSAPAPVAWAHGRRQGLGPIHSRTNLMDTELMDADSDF

Chain of SMO F460L (Q99835 28-787 F460L): as the sequence (Q99835 28-787 D473G) above, with F433L, G446D counted along it
Chain of SMO L412F (Q99835 28-787 L412F): as the sequence (Q99835 28-787 D473G) above, with L385F, G446D counted along it
Chain of SMO Q477E (Q99835 28-787 Q477E): as the sequence (Q99835 28-787 D473G) above, with G446D, Q450E counted along it
Chain of SMO V321M (Q99835 28-787 V321M): as the sequence (Q99835 28-787 D473G) above, with V294M, G446D counted along it
Chain of SMO W281C (Q99835 28-787 W281C): as the sequence (Q99835 28-787 D473G) above, with W254C, G446D counted along it
Chain of SMO Q635E (Q99835 28-787 Q635E): as the sequence (Q99835 28-787 D473G) above, with G446D, Q608E counted along it
Chain of SMO V386A (Q99835 28-787 V386A): as the sequence (Q99835 28-787 D473G) above, with V359A, G446D counted along it
Chain of SMO H231R (Q99835 28-787 H231R): as the sequence (Q99835 28-787 D473G) above, with H204R, G446D counted along it

- HH pathway activity, responsiveness to drug (SMO F460L): partially or completely unresponsive
- HH pathway activity, responsiveness to drug (SMO L412F): partially or completely unresponsive
- HH activity (Gli1 mRNA) in the presence of drug (SMO H231R): retained high levels of HH activity
- HH activity (Gli1 mRNA) in the presence of drug (SMO W281C): retained high levels of HH activity
- HH activity (Gli1 mRNA) in the presence of drug (SMO V386A): response similar to SMO WT
- HH pathway activity, responsiveness to drug (SMO V321M): partially or completely unresponsive
- HH activity (Gli1 mRNA) in the presence of drug (SMO Q477E): retained high levels of HH activity
- HH activity (Gli1 mRNA) in the presence of drug (SMO D473G): retained high levels of HH activity
Compound: CS(=O)(=O)c1ccc(C(=O)Nc2ccc(Cl)c(-c3ccccn3)c2)c(Cl)c1 [vismodegib]
- HH pathway activity (Gli1 mRNA) in the presence of SMO variants [1]: partial or complete resistance
- HH pathway activity, resistance at low drug concentrations (SMO Q635E): resistance at low but not high vismodegib concentrations
- clinical response [2]: respond to vismodegib and have a low rate of acquired resistance
- patients developing resistance during the first year ([3]; additional to non-responders, ref Chang and Oro): 20%
- overall response rate ([3]; advanced and metastatic BCCs, ref Axelson et al., 2013, Sekulic et al.): 48%
